A melting point compilation (Tetko et al.; mined from patent text by program, amines drawn as free bases though some values may be those of a salt)

Work on `COCCOc1ccc(CCCOC(=O)NS(=O)(=O)NCCOC(C)C)c(Oc2ncc(C(F)(F)F)cc2Cl)c1` yielded a melting point of 114 °C.
Work on `CCCCCCCCCCCCCCCCCCNCC(O)COc1ccc(Nc2ccccc2)cc1` (configuration not stated) yielded a melting point of 81 to 86 °C.
For `COc1ccc2cc(C3CCN(CC(O)COc4ccccc4C=C4CCOC4=O)CC3)ccc2c1` (configuration not stated), the melting point was 148 to 150 °C.
Molecule `CC(C)(C)OC(=O)N1CCC(C(=O)N2CCc3ccc4[nH]c(=O)c(=O)[nH]c4c3C2)CC1` has a melting point of 283 to 286 °C.
With `Cc1cc(C)cc(-c2nc3ncccc3o2)c1` the melting point was 148 to 152 °C.
`O=C1C(=O)N(Cc2ccc(O)cc2)c2ccc(S(=O)(=O)N3CCC[C@H]3COc3ccccc3)cc21` showed a melting point of 170 to 172 °C.
Work on `CCCCCCCCCCCCCCCCCCOc1cn(Cc2ccccc2)c(CO)cc1=O` yielded a melting point of 120 to 121 °C.
Molecule `CN=C(O)c1cc([N+](=O)[O-])cc([N+](=O)[O-])c1C(=O)O` has a melting point of 174 to 176 °C.
With `Cc1cc(C#N)cn2cc(-c3cccc(Br)c3)nc12` the melting point was 168 to 170 °C.
In the case of `c1ccc(-c2nn3c(c2-c2cccc4nsnc24)CCC3)nc1`, the melting point is reported as 140 to 142 °C.
In the case of `CN(C(=O)c1c(Cl)cccc1Cl)c1cc(-c2ccc(Cl)cc2)on1`, the melting point is reported as 175 to 178 °C.
For `CCN(CC)C(=O)C(C)(C)n1cc(C)c(-c2ccccc2Cl)n1`, the melting point was 73 to 76 °C.
With `Cc1cc(Br)ccc1N1C(=O)c2ccc(Cl)cc2C1=O` the melting point was 210 to 212 °C.
`CC(C)(C)C(O)c1ccc(C(=O)O)cc1` (configuration not stated) gave a melting point of 162 to 163 °C.
Molecule `COc1cccc2c1SCCC2=O` has a melting point of 110 °C.
`CC(C)(C)OC(=O)[C@@H]1CCCN2C(=O)CC[C@H](NC(=O)c3ccccc3)C(=O)N12` gave a melting point of 74 to 76 °C.
Molecule `CCCCN1CCC(C(=O)O)(S(=O)(=O)c2ccc(Oc3ccc(Cl)cc3)cc2)CC1` has a melting point of 201 °C.
Work on `O=C(O)c1cccc(-c2ccc(F)c3cc(Cc4cc(F)cc(Cl)c4)sc23)c1` yielded a melting point of 185 to 186 °C.
With `COc1ccc(Oc2cc3nc(-c4ccccc4)oc3cc2[N+](=O)[O-])cc1` the melting point was 142 to 146 °C.
`FC1(F)Oc2ccc(C=Cc3nc(CNc4ccc(CCCCn5ccnn5)cc4)co3)cc2O1` showed a melting point of 102 to 104 °C.
Work on `CCOC(=O)N1CCC(n2nc(Cc3ccc(F)cc3)c3ccccc3c2=O)CC1` yielded a melting point of 151 to 152 °C.
Molecule `O=C1NC(=Cc2c(Cl)cccc2Cl)C(=O)C1=NO` has a melting point of 232 °C.
Work on `Cc1ccccc1-n1c(-c2sc(NC(=O)c3ccccc3)nc2-c2ccccc2)nc2ccccc2c1=O` yielded a melting point of over 275 °C.
For `COc1ccc(Nc2nc(Cl)nc(NCCCO)n2)cc1`, the melting point was 155 to 159 °C.
Work on `CCOC(=O)Cc1ccc(-c2ccc(F)cc2F)c(F)c1` yielded a melting point of 50 to 52 °C.
In the case of `CSc1cc(-c2ccc(C(F)(F)F)cc2)nc(-c2cccc(C(F)(F)F)c2)c1`, the melting point is reported as 98.5 °C.
For `CC(=O)OCc1ccc([N+](=O)[O-])cc1`, the melting point was 77 to 78 °C.
Molecule `CCN1CC(Cc2ccc(C(=O)O)cc2OC)c2cc(NC(=O)CC3CCCC3)ccc21` (configuration not stated) has a melting point of 183 to 186 °C.
In the case of `COc1cccc(C(=O)Nc2ccc(CN3C(=O)[C@H]4CCC[C@H]4N(C(=O)CN4C(=O)c5ccccc5C4=O)c4ccccc43)cc2)c1` (relative stereo), the melting point is reported as 250 to 251 °C.
In the case of `Nc1ccc(Oc2cccc3c(Oc4ccc(N)c(O)c4)cccc23)cc1O`, the melting point is reported as 251 to 253 °C.
For `COC(=O)c1ccc(CC(C)NCC(O)c2ccc(O)c(CO)c2)cc1` (configuration not stated), the melting point was 118 to 120 °C.
Molecule `O=C(NCCCOc1ccccn1)c1cccs1` has a melting point of 91 to 92 °C.
`CN(C)CCNC(=O)N1CCC(Sc2ccc(Cl)cc2)C1` (configuration not stated) gave a melting point of 97 to 98.5 °C.
Work on `Cn1nnnc1CO/N=C(\C(=O)O)c1csc(N)n1` yielded a melting point of 185 °C.
For `CCCCNC(=O)Oc1cccc(NC(=O)C=C(C)OC)c1`, the melting point was 166 °C.
Molecule `COc1ccc(Nc2ccc(OCc3ccccc3)cc2)c(C(C)=O)c1` has a melting point of 80 to 81.5 °C.
Work on `C[C@@H](N(CC(=O)O)C(=O)c1ccc(C(F)(F)F)cc1)[C@](O)(Cn1cncn1)c1ccc(F)cc1F` yielded a melting point of 132 to 135 °C.
Work on `COc1cc(Cl)cc(C)c1Nc1nc2c(Cl)ccc(C(O)(C(C)(C)C)C(C)(C)C)c2n1C` yielded a melting point of 246 to 248 °C.
Molecule `Cc1nc(NC(=O)c2cnn3c(C(F)(F)F)cc(-c4ccc(C(F)(F)F)cc4)nc23)sc1S(=O)(=O)NC(C)(C)CO` has a melting point of 257 °C.
Work on `CCCOC(=O)C=CC1C(C(=O)O)C1(C)C` (configuration not stated) yielded a melting point of 59 °C.
For `CC(C)(O)c1cccc(-c2ccc3nc(-c4ccc5cc[nH]c5c4)cn3c2)c1`, the melting point was 203 to 204 °C.
In the case of `COc1ccc(OC)c2c1C(=O)c1c(O)ccc(O)c1C2=O`, the melting point is reported as 297 to 300 °C.
Work on `COc1ccc(CCCNc2c(C)c(C)c3c(c2C)C(c2ccc(C(C)C)cc2)C(C)(C)O3)cc1` (configuration not stated) yielded a melting point of 62 to 65 °C.
In the case of `CC(C)(C)OC(=O)Nc1ccc(CN2C(=O)C3(COc4cc5c(cc43)OCCO5)c3ccccc32)cn1` (configuration not stated), the melting point is reported as 238 to 239 °C.
For `Cc1nc(N2CCc3ccccc3CC2)c(C#N)c(=O)n1CC1CC1`, the melting point was 119 to 122 °C.
Work on `O=c1ccc(-c2c(-c3ccccc3)nn3ccccc23)nn1C1CCCCC1` yielded a melting point of 115 to 117 °C.
`CSc1cc(C)nc(SC)c1NC(=O)CCCCCSc1nc2ncccc2o1` showed a melting point of 132 to 133 °C.
For `CCOC(=O)c1c(N2CCOCC2)c2ccc(C)nc2n(CC)c1=O`, the melting point was 129 to 131 °C.
`COc1ccc(-c2ccc3c(c2)S(=O)(=O)NC(C2CCCCC2)N3)c(OC)c1` (configuration not stated) showed a melting point of 208 to 213 °C.
With `CCC1(CC)OC(=O)N(CCC(C)(C)NC[C@H](O)c2ccc(O)c(NS(C)(=O)=O)c2)c2ccccc21` the melting point was 168 °C.
With `CC(=O)O[C@H]1[C@H](NC(C)=NC#N)c2cc(C#N)ccc2OC1(C)C` (relative stereo) the melting point was 236 to 238 °C.
For `CC1Cc2cc(NS(C)(=O)=O)ccc2OC12CCC(N1CCc3ccccc3C1)CC2` (configuration not stated), the melting point was 135 °C.
`O=C(NC(CCO)c1ccccc1Br)c1c(F)cccc1F` (configuration not stated) gave a melting point of 63 to 65 °C.
Work on `CCN1CN2C(=N1)C(c1ccccc1Cl)=NCc1ccsc12` yielded a melting point of 153 to 154 °C.
For `O=C(O)CN1C(=O)C(=Cc2ccc(OCCc3ccccc3)c(OCc3ccccc3)c2)SC1=S`, the melting point was 198 to 201 °C.
For `Cn1c(-c2ccc(-c3ccccn3)cc2)c(C(=O)O)c(=O)n1-c1ccc(C#N)cc1`, the melting point was 155 to 166 °C.
For `CCOC(=O)CC(NCCCN(C)C)C(=O)O` (configuration not stated), the melting point was 168 to 169 °C.
Molecule `NNC(=O)CCCSc1nccc(NC(N)=NCC(F)(F)F)n1` has a melting point of 192 to 195 °C.
`N=C(N)Nc1nc(C(=O)Nc2cccc(C(=O)NC(CC(=O)O)c3ccccc3)c2)cs1` (racemic) gave a melting point of 235 °C.
`COc1ccc(Cn2cc(C(F)(F)F)ccc2=O)cc1` gave a melting point of 84.2 to 86.1 °C.
Work on `CSCc1cn(C)c2cc(Cl)ccc2c1=O` yielded a melting point of 163 to 164 °C.
With `CCOC(=O)c1cc2c(cn1)[nH]c1cccc(C=O)c12` the melting point was 273 to 276 °C.
`COc1ccc(C(CNc2ncnc3c2ncn3C2OC(CO)C(O)C2O)c2ccccc2)cc1` (configuration not stated) gave a melting point of 87 to 92 °C.
`CC(=O)Nc1ncc(C#Cc2cnn3c(C(F)(F)F)cc(-c4ccc(C(F)(F)F)cc4)nc23)cn1` showed a melting point of 293 °C.
`CCOC(=O)C(C(=O)Nc1ccc(C)cc1)(c1ccccc1)c1ccccc1` gave a melting point of 88 to 90 °C.
For `Cc1cccc(-c2[nH]c(C(C)C)nc2-c2cccc(-c3ccc(S(N)(=O)=O)cc3F)c2)n1`, the melting point was 246 to 248 °C.
`CCOC(=O)C(=NNc1ccccc1CC)C(=O)OCC` showed a melting point of 33 to 34 °C.
Molecule `CC(NS(=O)(=O)c1cc(C(=O)CCl)ccc1Cl)c1ccccc1` (configuration not stated) has a melting point of 127 °C.
In the case of `Nn1c(-c2ccccc2Cl)nnc1-c1ccccc1C(F)(F)F`, the melting point is reported as 172 to 175 °C.
Work on `NCCCCCNc1cccc2c1C(=O)c1c(NCCCCCN)cccc1C2=O` yielded a melting point of 115 to 116 °C.
With `CC(C)(C)CN1C(=O)C2CC2(c2ccc(N)cc2)C1=O` (configuration not stated) the melting point was 118 to 119 °C.
In the case of `CCCC(=O)NCCc1c[nH]c2ccc3c(c12)CCCO3`, the melting point is reported as 91 to 93 °C.
`CC(C)(C)C(O)C(CC1CCCCC1)n1cncn1` (configuration not stated) gave a melting point of 104 to 107 °C.
With `O=C1CCN(C(=O)c2ccc(Cl)cc2Cl)c2cc(Cl)ccc21` the melting point was 159 to 163 °C.
`Oc1ccccc1C=Nc1ccc(O)c2ccccc12` gave a melting point of 154 to 157 °C.
With `O=C1CCCCN1c1ccc(I)cc1` the melting point was 108 to 110 °C.
`O=C(O)C(CCCN1C(=O)c2ccccc2S1(=O)=O)NS(=O)(=O)c1ccc(-c2ccc(Cl)cc2)cc1` (configuration not stated) showed a melting point of 177 to 179 °C.
Molecule `Cc1noc(NS(=O)(=O)c2ccccc2[N+](=O)[O-])c1C` has a melting point of 91 to 94 °C.
`CC(C)(C)S(=O)(=O)N1C[C@@H](F)C[C@@H]1c1cc(F)cc(C#N)c1` showed a melting point of 182 to 184 °C.
With `CC(=O)Oc1cccc2c1C(=O)c1c(OC(C)=O)cc(C(=O)NOCc3ccccc3)cc1C2=O` the melting point was 192 to 194 °C.
Molecule `CC(C)N1CC2CC(CN(C(=O)Cc3ccc([N+](=O)[O-])cc3)C2)C1` has a melting point of 93 to 94 °C.
Work on `CC1(COCCCOc2ccc(C(=O)O)cc2)COC1` yielded a melting point of 102 °C.
For `COC(=O)c1nc(OC)nc(OC)c1Cl`, the melting point was 98 to 100 °C.
For `CCCCc1nc(=O)n2nc(-c3ccco3)cc2[nH]1`, the melting point was 190 °C.
`CNC(=O)c1c(I)c(NC(C)=O)c(I)c(C(=O)NCCC(=O)O)c1I` showed a melting point of 190 °C.
With `CCC(CC)NCc1cnc2c(C)c(NC(=O)c3ccc(OC[C@@H]4CCCO4)cc3)ccc2c1` the melting point was 113 to 115 °C.
`CCn1c2c(c3ccccc3c1=O)C(=O)c1ccccc1-2` showed a melting point of 188 to 189 °C.
For `CC12CCC3c4ccc(O)cc4C(O)C(Sc4ccc(O)cc4)C3C1CCC2O` (configuration not stated), the melting point was 220 to 225 °C.
`CC1CCCCN1CCNc1ccnc2cc(Cl)ccc12` (racemic) gave a melting point of 133 to 134 °C.
For `Cc1cc(-c2ccccc2)n2nc(C(=O)N(C)C3CCCCC3)cc2n1`, the melting point was 158 to 162 °C.
For `CCCCCCCCC[C@]1(C)OO[C@@H]2C[C@H]1CC(=O)[C@@H]2C`, the melting point was 39 °C.
With `CC(C)c1cccc(S(=O)(=O)n2c(CCCC(=O)O)cc3cc(C(F)(F)F)ccc32)c1` the melting point was 160 °C.
`CCNc1c(SC(F)(F)F)c(C)nn1-c1c(Cl)cc(C(F)(F)F)cc1Cl` showed a melting point of 53 to 54 °C.
`CC1(c2ccc3noc(-c4ccccc4)c3c2)OCCO1` gave a melting point of 69 to 71 °C.
`CN1CCc2cc(Cl)c(O)cc2C1C1(c2ccc(Cl)cc2)CCC1` (configuration not stated) showed a melting point of 168 to 171 °C.
Work on `Nc1ccc2nc3c(nc2c1)CCCC3` yielded a melting point of 150 to 152 °C.
Work on `O=C1c2ccccc2C(=O)N1c1cccnc1Cl` yielded a melting point of 156 to 157 °C.
